For data set [1], the system named is Jurkat cells. Put plainly: Suppression of Fas antibody-induced apoptosis, survival rate by MTT method. Format: cell-based. The conditions noted are these: Homo sapiens, Fas antibody CH-11 100 ng/ml, 6 hours, read-out: concentration that inhibited 50% of apoptosis induced by Fas antibody. Here is the method: Jurkat cells, an […] T cell leukemia cell line expressing Fas, were used as Fas antibody sensitive cells. The Jurkat cells were cultured in a RPMI medium containing 10% calf serum in an incubator that contained 5% carbon dioxide and was saturated with stream. The Jurkat cells in the logarithmic proliferation period were added with RKB-3564A, RKB-3564B, RKB-3564D, RKB-3564E, and RKB-3564F in a series of dilution, and cultured in the presence of Fas antibody, CH-11 (Medical & Biological Laboratories Co., Ltd., 100 ng/ml) for 6 hours, and the survival rate of the cells was assayed by the MTT method. The survival rate was calculated according to the following formula. Survival rate (%)={[(absorbance in the presence of anti-Fas antibody and the compound)−(absorbance in the presence of anti-Fas antibody and in the absence of the compound)]/[(absorbance in the absence of anti-Fas antibody and the compound)−(absorbance in the presence of anti-Fas antibody and in the absence of the compound)]}×100

Data set [2] can be described thus: Solubility in solvents.

In brackets after ≈: the same amount, converted by molar mass.

With `CC1OC2C3=C(C(=O)C4OC4C3O)C1C1C(C)OC=C3C(O)C4OC4C(=O)C321` (single isomer, unassigned) [RKB-3564A], the IC50 in data set [1] is 3 to 10 µg/mL (≈ 7.72 to 25.7 µM). On to `CC1OC2C3=C(C(=O)C4OC4C3O)C1C1C3=C(C(O)C4OC4C3=O)C2OC1C` (centres unmarked) [RKB-3564D], for which, in data set [1], the IC50 lay within 3 to 10 µg/mL (≈ 7.72 to 25.7 µM). Also, in data set [2] (methanol or dimethyl sulfoxide), the “Solubility in methanol or dimethyl sulfoxide” value is “easily soluble”. In addition, in data set [2] (n-hexane), the Solubility in n-hexane entry is given as “Insoluble”. For `CC1OC2C3=C(C(=O)C4OC4C3O)C1C1C(C)OC=C3C(O)C4OC4C(=O)C321` (centres unmarked) [RKB-3564E], in data set [1], the IC50 is 3 to 10 µg/mL (≈ 7.72 to 25.7 µM).

The record behind these values is US7094802B2, “PKB-3564 substance with neovascularization inhibitory activity” (Riken, priority 2001, dated 2006).
